Activity calls are given as the source filed them. No cut-off for these calls is given here.
Tests used:
Staphylococcus aureus [1] = test: Bactericidal activity against methicillin-resistant Staphylococcus aureus CCARM 3089 at 0.5 to 2 uM incubated for 12 hrs by time-kill assay; assay type: functional, organism-based; details: dose 0.5-2 µM
Staphylococcus aureus [2] = test: Synergistic bactericidal activity against methicillin-resistant Staphylococcus aureus CCARM 3089 at 0.5 to 2 uM incubated for 12 hrs in presence of oxacillin by time-kill assay; assay type: functional, organism-based; details: dose 0.5-2 µM
Escherichia coli [3] = test: Antibacterial activity against Escherichia coli KCTC 1682 assessed as zone of clearance incubated for 4 hrs in presence of trypsin by radical diffusion assay; assay type: functional, organism-based
Escherichia coli [4] = test: Antibacterial activity against Escherichia coli KCTC 1682 assessed as zone of clearance incubated for 4 hrs in presence of alpha-chymotrypsin by radical diffusion assay; assay type: functional, organism-based
Mus musculus [5] = test: Antiseptic activity in sepsis shock ICR mouse model infected with carbapenem-resistant Acinetobacter baumannii assessed as reduction in bacterial count in liver at 1 mg/kg, ip pretreated with compound for 1 hr followed by bacterial infection measured after 16 hrs relative to control; assay type: functional; parameters: scale not given: the % may be the effect or the level left; details: time 17 hrs
Mus musculus [6] = test: Antiseptic activity in sepsis shock ICR mouse model infected with carbapenem-resistant Acinetobacter baumannii assessed as reduction in serum IL-6 level at 1 mg/kg, ip pre-infected with bacteria followed by compound administration 1 hr post-infection measured after 16 hrs relative to control; assay type: functional; parameters: scale not given: the % may be the effect or the level left
Mus musculus [7] = test: Antiseptic activity in sepsis shock ICR mouse model infected with carbapenem-resistant Acinetobacter baumannii assessed as decrease in IL-6 level in serum at 1 mg/kg, ip pretreated with compound for 1 hr followed by bacterial infection measured after 16 hrs relative to control; assay type: functional; parameters: scale not given: the % may be the effect or the level left; details: time 17 hrs
[8] = molecular target: T1, Toll-like receptor 4 (Mus musculus) (UniProt Q9QUK6); test: Inhibition of LPS-induced TLR4 activation in mouse RAW264.7 cells assessed as decrease in JNK phosphorylation at 2 uM pretreated for 1 hr followed by LPS treatment for 30 mins by Western blot analysis relative to control; assay type: cell-based; details: time 90.0 min
T1 sequence (whole entry): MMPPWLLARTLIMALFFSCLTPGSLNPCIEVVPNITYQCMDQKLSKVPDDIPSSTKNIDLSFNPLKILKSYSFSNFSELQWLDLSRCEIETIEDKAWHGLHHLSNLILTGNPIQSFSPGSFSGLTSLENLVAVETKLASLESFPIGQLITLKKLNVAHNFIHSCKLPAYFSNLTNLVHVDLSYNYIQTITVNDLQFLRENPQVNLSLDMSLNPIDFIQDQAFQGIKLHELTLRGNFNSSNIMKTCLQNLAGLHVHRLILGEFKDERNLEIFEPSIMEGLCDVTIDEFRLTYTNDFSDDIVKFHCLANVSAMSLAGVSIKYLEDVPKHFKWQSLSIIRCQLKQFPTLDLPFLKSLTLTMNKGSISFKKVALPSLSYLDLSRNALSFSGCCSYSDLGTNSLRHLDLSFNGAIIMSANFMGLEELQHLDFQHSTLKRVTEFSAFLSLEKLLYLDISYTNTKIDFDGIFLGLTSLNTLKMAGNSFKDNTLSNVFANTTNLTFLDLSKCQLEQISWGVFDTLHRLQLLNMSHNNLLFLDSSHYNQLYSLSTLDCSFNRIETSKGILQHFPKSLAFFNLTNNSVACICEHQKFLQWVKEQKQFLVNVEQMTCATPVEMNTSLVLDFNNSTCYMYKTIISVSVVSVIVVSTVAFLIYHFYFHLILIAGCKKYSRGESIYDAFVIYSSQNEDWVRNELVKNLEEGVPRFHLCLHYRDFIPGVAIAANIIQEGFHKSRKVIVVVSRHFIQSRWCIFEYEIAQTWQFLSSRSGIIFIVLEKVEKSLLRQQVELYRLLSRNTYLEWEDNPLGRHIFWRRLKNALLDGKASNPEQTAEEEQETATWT

Homo sapiens = species on record: Homo sapiens; test: Binding affinity to CM5 chip-immobilized TLR4/MD2 (unknown origin) complex by SPR analysis
Mus musculus [9] = test: (§1) Antiseptic activity in sepsis shock ICR mouse model infected with carbapenem-resistant Acinetobacter baumannii assessed as reduction in bacterial count in lungs at 1 mg/kg, ip pre-infected with bacteria followed by compound administration 1 hr post-infection measured after 16 hrs relative to control; assay type: functional; parameters: scale not given: the % may be the effect or the level left
Mus musculus [10] = test: as §1, with “3 hrs” for “1 hr”; assay type: functional; parameters: scale not given: the % may be the effect or the level left
Acinetobacter baumannii [11] = test: Antibacterial activity against carbapenem-resistant Acinetobacter baumannii-induced sepsis shock in ICR mouse model assessed as bacterial growth inhibition in kidney at 1 mg/kg, ip pretreated with compound for 1 hr followed by bacterial infection measured after 16 hrs relative to control; assay type: functional; details: time 17 hrs
[12] = Effect on secondary structure of drug in LPS assessed as formation of left-handed alpha-helical conformation at 150 uM by CD analysis; assay type: physicochemical
[13] = molecular target: Toll-like receptor 4 (Homo sapiens) (UniProt O00206); test: Inhibition of LPS-induced human TLR4 activation expressed in HEK-Blue hTLR4 cells assessed as decrease in SEAP activity at 12.5 uM pretreated for 1 hr followed by LPS treatment for 16 hrs by absorbance based assay relative to control; assay type: cell-based; details: time 17.0 hrs
Acinetobacter baumannii [14] = test: Antibacterial activity against carbapenem-resistant Acinetobacter baumannii-induced sepsis shock in ICR mouse model assessed as bacterial growth inhibition in lung at 1 mg/kg, ip pretreated with compound for 1 hr followed by bacterial infection measured after 16 hrs relative to control; assay type: functional; details: time 17 hrs
[15] = molecular target: Toll-like receptor 4 (Homo sapiens) (UniProt O00206); test: Inhibition of LPS-induced human TLR4 activation expressed in HEK-Blue hTLR4 cells assessed as decrease in SEAP activity at 25 uM pretreated for 1 hr followed by LPS treatment for 16 hrs by absorbance based assay relative to control; assay type: cell-based; details: time 17.0 hrs
Mus musculus [16] = test: Antiseptic activity in sepsis shock ICR mouse model infected with carbapenem-resistant Acinetobacter baumannii assessed as reduction in bacterial count in kidney at 1 mg/kg, ip pretreated with compound for 3 hrs followed by bacterial infection measured after 16 hrs relative to control; assay type: functional; parameters: scale not given: the % may be the effect or the level left; details: time 19 hrs
Mus musculus [17] = test: Antiseptic activity in sepsis shock ICR mouse model infected with carbapenem-resistant Acinetobacter baumannii assessed as decrease in TNF-alpha level in serum at 1 mg/kg, ip pretreated with compound for 1 hr followed by bacterial infection measured after 16 hrs relative to control; assay type: functional; parameters: scale not given: the % may be the effect or the level left; details: time 17 hrs
[18] = molecular target: T1, Toll-like receptor 4 (Mus musculus); test: Inhibition of LPS-induced TLR4 activation in mouse RAW264.7 cells assessed as decrease in phosphorylated NF-kappaB nuclear translocation at 10 uM pretreated for 1 hr followed by LPS treatment for 30 mins by CLSM analysis; assay type: cell-based; details: time 90.0 min

Toll-like receptor 4 (Homo sapiens), sequence (O00206 whole entry): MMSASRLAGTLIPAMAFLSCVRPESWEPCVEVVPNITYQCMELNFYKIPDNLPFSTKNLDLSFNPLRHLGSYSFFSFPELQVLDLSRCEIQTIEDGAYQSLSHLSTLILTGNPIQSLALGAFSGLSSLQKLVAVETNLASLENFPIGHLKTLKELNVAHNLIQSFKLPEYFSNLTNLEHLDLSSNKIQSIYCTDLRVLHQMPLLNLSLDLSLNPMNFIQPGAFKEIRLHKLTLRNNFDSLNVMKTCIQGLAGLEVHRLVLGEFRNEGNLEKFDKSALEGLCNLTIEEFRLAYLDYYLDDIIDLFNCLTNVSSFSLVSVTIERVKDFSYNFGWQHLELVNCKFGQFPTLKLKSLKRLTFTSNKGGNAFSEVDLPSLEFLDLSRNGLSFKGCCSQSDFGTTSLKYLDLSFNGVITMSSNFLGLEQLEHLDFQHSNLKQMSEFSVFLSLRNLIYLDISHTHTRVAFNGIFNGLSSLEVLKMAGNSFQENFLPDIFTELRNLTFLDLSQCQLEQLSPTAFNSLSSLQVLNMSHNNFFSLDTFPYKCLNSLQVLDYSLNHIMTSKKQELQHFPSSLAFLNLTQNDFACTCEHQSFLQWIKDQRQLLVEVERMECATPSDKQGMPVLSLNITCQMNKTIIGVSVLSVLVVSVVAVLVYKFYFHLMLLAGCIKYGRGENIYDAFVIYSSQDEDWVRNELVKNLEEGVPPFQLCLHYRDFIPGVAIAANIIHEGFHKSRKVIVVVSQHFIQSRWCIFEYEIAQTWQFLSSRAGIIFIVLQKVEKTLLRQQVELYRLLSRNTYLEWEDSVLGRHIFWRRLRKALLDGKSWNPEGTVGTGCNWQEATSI

| Substance | Activity (Staphylococcus aureus [1]) | Activity (Staphylococcus aureus [2]) | Activity (Escherichia coli [3]) | Activity (Escherichia coli [4]) | Activity (Mus musculus [5]) | Activity (Mus musculus [6]) | Activity (Mus musculus [7]) | inhibition [8] | Activity (Homo sapiens) | Activity (Mus musculus [9]) | Activity (Mus musculus [10]) | inhibition in vivo at 1 mg/kg (Acinetobacter baumannii [11]) | Activity [12] | inhibition [13] | inhibition in vivo at 1 mg/kg (Acinetobacter baumannii [14]) | inhibition [15] | Activity (Mus musculus [16]) | Activity (Mus musculus [17]) | inhibition [18] |
| --- | --- | --- | --- | --- | --- | --- | --- | --- | --- | --- | --- | --- | --- | --- | --- | --- | --- | --- | --- |
| H-GVFRLKKWIKKVIKKWGK-NH2 | inactive | Active | inactive | inactive | – | – | – | – | – | – | – | – | – | – | – | – | – | – | – |
| H-GVFRLKKWLKKVKKWGK-NH2 | – | – | – | – | 99.7% | 97.9% | 86.3% | 52% | 9.4 10^-7M | 92.3% | 25% | 88.1% | Active | 92.1% | 96.5% | 100% | 98.5% | 49.4% | Active |

From ChEMBL document CHEMBL6074662, “Antibacterial, Antibiofilm, and Anti-inflammatory Effects of a Novel Thrombin-Derived Peptide in Sepsis Models: Insights into Underlying Mechanisms” (J Med Chem, 2024)
